US9096608B2, “Pharmaceutically active pyrazolo-triazine derivatives” (LEAD DISCOVERY CENTER GMBH, priority 2012, dated 2015)
Read-outs that look alike come from different tables or passages of the source.

Experiments:
Assay type in all cases: biochemical
CDK7/CycH/Mat1 = target: T1, CDK7/CycH/Mat1 (Homo sapiens, UniProt P50613); assay: CDK7 Enzymatic Activity Assay (Lance Kinase Activity Assay, FRET)
T1 construct: purchased Carna
Outline: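 TR-FRET (LANCE) kinase assay with ULight-MBP peptide substrate and Eu-labelled anti-phospho antibody; compounds in 8-point 1:3 series in HEPES 50 mM pH 7.5, MgCl2 10 mM, EGTA 1 mM, DTT 2 mM, 0.01% Tween-20.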

CDK2/CycA = target: T2, CDK2/CycA (Homo sapiens, UniProt P24941); assay: CDK2 Enzymatic Activity Assay (Lance Kinase Activity Assay, FRET); settings: for CDK2 IC50 range class: Table 5B, symbols per IC50 ranges of b615
T2 construct: purchased Proqinase
Outline: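 Compounds serially diluted 1:3 over 8 steps, run with CDK2/CycA, ULight-MBP substrate and ATP in HEPES pH 7.5 buffer for 1 h at room temperature. LANCE TR-FRET detection with Eu-anti-phospho-MBP after EDTA stop; IC50 from sigmoidal dose-response curves.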

CDK9/Cyclin T1 = target: T3, CDK9/Cyclin T1 (Homo sapiens, UniProt P50750); assay: CDK9 Enzymatic Activity Assay (Lance Kinase Activity Assay, FRET); settings: for CDK9: Selectivity of CDK7 inhibition over CDK9 inhibition [fold]: Table 5B, symbols per IC50 ranges of b615
T3 construct: purchased Invitrogen
T3 sequence (P50750 whole entry): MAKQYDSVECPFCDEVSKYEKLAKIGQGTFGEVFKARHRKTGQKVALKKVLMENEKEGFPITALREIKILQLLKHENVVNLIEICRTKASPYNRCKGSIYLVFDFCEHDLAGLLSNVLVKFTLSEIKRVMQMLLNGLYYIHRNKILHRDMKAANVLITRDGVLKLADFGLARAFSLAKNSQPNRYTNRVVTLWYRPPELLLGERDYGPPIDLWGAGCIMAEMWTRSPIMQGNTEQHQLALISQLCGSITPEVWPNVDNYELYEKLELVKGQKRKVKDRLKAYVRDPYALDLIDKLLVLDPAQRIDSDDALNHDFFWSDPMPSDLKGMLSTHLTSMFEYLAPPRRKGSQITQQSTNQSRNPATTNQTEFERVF
T3 sequence (O60563 whole entry partner): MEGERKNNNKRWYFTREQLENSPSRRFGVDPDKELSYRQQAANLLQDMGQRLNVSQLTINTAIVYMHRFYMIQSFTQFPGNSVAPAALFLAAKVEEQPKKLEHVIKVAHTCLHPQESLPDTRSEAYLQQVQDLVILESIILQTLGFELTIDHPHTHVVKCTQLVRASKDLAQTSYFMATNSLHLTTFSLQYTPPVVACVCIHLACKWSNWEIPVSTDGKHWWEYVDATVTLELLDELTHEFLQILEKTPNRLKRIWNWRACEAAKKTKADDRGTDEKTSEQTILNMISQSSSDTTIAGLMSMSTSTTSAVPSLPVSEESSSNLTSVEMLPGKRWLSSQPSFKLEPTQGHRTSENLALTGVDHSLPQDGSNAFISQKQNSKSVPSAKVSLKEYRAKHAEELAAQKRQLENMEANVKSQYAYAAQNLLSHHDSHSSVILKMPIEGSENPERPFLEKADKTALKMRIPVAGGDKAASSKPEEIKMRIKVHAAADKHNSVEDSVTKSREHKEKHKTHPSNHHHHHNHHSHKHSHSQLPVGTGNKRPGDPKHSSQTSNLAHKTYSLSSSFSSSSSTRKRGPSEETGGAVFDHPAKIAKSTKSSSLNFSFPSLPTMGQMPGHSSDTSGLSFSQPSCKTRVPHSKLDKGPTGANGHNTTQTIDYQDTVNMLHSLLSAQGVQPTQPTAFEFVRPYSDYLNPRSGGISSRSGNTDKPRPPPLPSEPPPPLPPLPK
Outline: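 TR-FRET detection of ULight-MBP substrate phosphorylation by CDK9/cyclin T1 using a Eu-anti-phospho-MBP antibody, in 50 mM HEPES pH 7.5, 10 mM MgCl2, 1 mM EGTA, 2 mM DTT, 0.01% Tween-20. Kinase reaction 1 h at room temperature, then EDTA detection buffer for 1 h before reading.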

[1] = Table 5A, 25 μM ATP final, read-out: CDK7: IC50 [mM] for CDK7 inhibition (the above defined ranges apply)

T1 sequence (P50613 whole entry): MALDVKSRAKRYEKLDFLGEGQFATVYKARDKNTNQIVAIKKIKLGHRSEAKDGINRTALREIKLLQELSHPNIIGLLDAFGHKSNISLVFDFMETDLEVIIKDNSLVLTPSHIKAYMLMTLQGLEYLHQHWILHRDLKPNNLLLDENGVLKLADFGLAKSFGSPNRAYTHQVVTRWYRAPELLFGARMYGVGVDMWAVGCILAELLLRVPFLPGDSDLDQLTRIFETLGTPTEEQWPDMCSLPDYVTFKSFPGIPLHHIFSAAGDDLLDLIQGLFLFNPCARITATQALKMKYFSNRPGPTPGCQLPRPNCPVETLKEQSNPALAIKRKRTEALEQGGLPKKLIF
T1 sequence (P51946 whole entry partner): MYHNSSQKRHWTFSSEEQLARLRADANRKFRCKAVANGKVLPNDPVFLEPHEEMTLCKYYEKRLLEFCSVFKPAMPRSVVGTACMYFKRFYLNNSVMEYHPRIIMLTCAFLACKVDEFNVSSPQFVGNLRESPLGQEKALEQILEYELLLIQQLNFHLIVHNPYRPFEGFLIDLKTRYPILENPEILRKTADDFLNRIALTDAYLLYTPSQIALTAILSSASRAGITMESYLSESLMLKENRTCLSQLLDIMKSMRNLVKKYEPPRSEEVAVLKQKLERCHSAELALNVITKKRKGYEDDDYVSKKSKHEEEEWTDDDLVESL
T1 sequence (P51948 whole entry partner): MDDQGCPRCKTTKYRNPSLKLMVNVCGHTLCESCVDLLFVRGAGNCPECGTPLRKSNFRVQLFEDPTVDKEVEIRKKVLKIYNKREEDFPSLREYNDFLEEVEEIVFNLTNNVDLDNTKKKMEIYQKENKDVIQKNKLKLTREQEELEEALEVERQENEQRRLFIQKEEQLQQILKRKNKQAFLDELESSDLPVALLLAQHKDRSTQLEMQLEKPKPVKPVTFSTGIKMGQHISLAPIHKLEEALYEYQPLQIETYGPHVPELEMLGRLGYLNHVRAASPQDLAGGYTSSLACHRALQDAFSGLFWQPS

Row | SMILES | IC50 (CDK7/CycH/Mat1; [1]) [nM] | CDK2 IC50 range class (CDK2/CycA) | CDK9: Selectivity of CDK7 inhibition over CDK9 inhibition [fold] (CDK9/Cyclin T1) | IC50 (CDK7/CycH/Mat1; Table 7, lower part, read-out: IC50 [nM] CDK7) [nM] | IC50 (CDK7/CycH/Mat1; Table 7, upper part, read-out: IC50 [nM] CDK7) [nM] | Selectivity CDK7 over CDK2 [fold] (CDK2/CycA; Table 7, lower part) | IC50 (CDK2/CycA; Table 7, upper part) [nM] | Selectivity CDK7 over CDK9 [fold] (CDK9/Cyclin T1; Table 7, lower part) | IC50 (CDK9/Cyclin T1; Table 7, upper part) [nM]
1 | COc1cccc([C@H](C)Nc2nc(N[C@@H]3CCCNC3)nc3c(C(C)C)cnn23)c1 [(VIII-h), 8-isopropyl-N4-((S)-1-(3-methoxyphenyl)ethyl)-N2-((R)-piperidin-3-yl)pyrazolo[1,5-a][1,3,5]triazine-2,4-diamine] | 10 to 30 | +++ (IC50>2500 nM) | +++ (IC50>2500 nM) |  |  |  |  |  | 
2 | COc1cccc([C@H](C)Nc2nc(N(C)CCN3CCCC3)nc3c(C(C)C)cnn23)c1 [(VIII-k), (S)-8-isopropyl-N4-(1-(3-methoxyphenyl)ethyl)-N2-methyl-N2-(2-(pyrrolidin-1-yl)ethyl)pyrazolo[1,5-a][1,3,5]triazine-2,4-diamine] | > 100 | +++ (IC50>2500 nM) | +++ (IC50>2500 nM) |  |  |  |  |  | 
3 | COc1cccc([C@H](C)Nc2nc(N3CC(N4CCCC4=O)C3)nc3c(C(C)C)cnn23)c1 [(VIII-n), (S)-1-(1-(8-isopropyl-4-((1-(3-methoxyphenyl)ethyl)amino)pyrazolo[1,5-a][1,3,5]triazin-2-yl)azetidin-3-yl)pyrrolidin-2-one] | > 100 | +++ (IC50>2500 nM) | +++ (IC50>2500 nM) |  |  |  |  |  | 
4 | COc1cccc([C@H](C)Nc2nc(N3CC(N4CCC(F)(F)C4)C3)nc3c(C(C)C)cnn23)c1 [(VIII-o), (S)-2-(3-(3,3-difluoropyrrolidin-1-yl)azetidin-1-yl)-8-isopropyl-N-(1-(3-methoxyphenyl)ethyl)pyrazolo[1,5-a][1,3,5]triazin-4-amine] | > 100 | +++ (IC50>2500 nM) | +++ (IC50>2500 nM) |  |  |  |  |  | 
5 | COc1cccc([C@H](C)Nc2nc(N3CCCC(N)C3)nc3c(C(C)C)cnn23)c1 (stereo partly drawn) [(VIII-p), 2-(3-aminopiperidin-1-yl)-8-isopropyl-N-((S)-1-(3-methoxyphenyl)ethyl)pyrazolo[1,5-a][1,3,5]triazin-4-amine] | > 100 | +++ (IC50>2500 nM) | +++ (IC50>2500 nM) |  |  |  |  |  | 
6 | COc1cccc([C@H](C)Nc2nc(N3CCC(N)C3)nc3c(C(C)C)cnn23)c1 (stereo partly drawn) [(VIII-q), 2-(3-aminopyrrolidin-1-yl)-8-isopropyl-N-((S)-1-(3-methoxyphenyl)ethyl)pyrazolo[1,5-a][1,3,5]triazin-4-amine] | > 100 | +++ (IC50>2500 nM) | +++ (IC50>2500 nM) |  |  |  |  |  | 
7 | COc1cccc([C@H](C)Nc2nc(N3CC4CCNC4C3)nc3c(C(C)C)cnn23)c1 (stereo partly drawn) [(VIII-r), 2-(hexahydropyrrolo[3,4-b]pyrrol-5(1H)-yl)-8-isopropyl-N-((S)-1-(3-methoxyphenyl)ethyl)pyrazolo[1,5-a][1,3,5]triazin-4-amine] | > 100 | +++ (IC50>2500 nM) | +++ (IC50>2500 nM) |  |  |  |  |  | 
8 | COc1cccc([C@H](C)Nc2nc(N(C)CCN3CCOCC3)nc3c(C(C)C)cnn23)c1 [(VIII-s), (S)-8-isopropyl-N4-(1-(3-methoxyphenyl)ethyl)-N2-methyl-N2-(2-morpholinoethyl)pyrazolo[1,5-a][1,3,5]triazine-2,4-diamine] | > 100 | +++ (IC50>2500 nM) | +++ (IC50>2500 nM) |  |  |  |  |  | 
9 | COc1cccc([C@H](C)Nc2nc(NCCCN)nc3c(C(C)C)cnn23)c1 [(VIII-t), (S)-N2-(3-aminopropyl)-8-isopropyl-N4-(1-(3-methoxyphenyl)ethyl)pyrazolo[1,5-a][1,3,5]triazine-2,4-diamine] | 30 to 100 | +++ (IC50>2500 nM) | +++ (IC50>2500 nM) |  |  |  |  |  | 
10 | COc1cccc([C@H](C)Nc2nc(NCCOCCN)nc3c(C(C)C)cnn23)c1 [(VIII-u), (S)-N2-(2-(2-aminoethoxy)ethyl)-8-isopropyl-N4-(1-(3-methoxyphenyl)ethyl)pyrazolo[1,5-a][1,3,5]triazine-2,4-diamine] | 30 to 100 | +++ (IC50>2500 nM) | +++ (IC50>2500 nM) |  |  |  |  |  | 
11 | COC(=O)C(CN)Nc1nc(N[C@@H](C)c2cccc(OC)c2)n2ncc(C(C)C)c2n1 (stereo partly drawn) [(VIII-y), methyl 3-amino-2-((8-isopropyl-4-(((S)-1-(3-methoxyphenyl)ethyl)amino)pyrazolo[1,5-a][1,3,5]triazin-2-yl)amino)propanoate] | > 100 | +++ (IC50>2500 nM) | +++ (IC50>2500 nM) |  |  |  |  |  | 
12 | CC(C)c1cnn2c(N[C@@H](C)c3ccccc3)nc([S+]([O-])C3CCNCC3)nc12 (stereo partly drawn) [(X-a), 8-isopropyl-N-((S)-1-phenylethyl)-2-(piperidin-4-ylsulfinyl)pyrazolo[1,5-a][1,3,5]triazin-4-amine] | < 10 | +++ (IC50>2500 nM) | +++ (IC50>2500 nM) |  |  |  |  |  | 
13 | COc1cccc([C@H](C)Nc2nc(SC3CCNCC3)nc3c(C(C)C)cnn23)c1 [(X-e), (S)-8-isopropyl-N-(1-(3-methoxyphenyl)ethyl)-2-(piperidin-4-ylthio)pyrazolo[1,5-a][1,3,5]triazin-4-amine] | > 100 | +++ (IC50>2500 nM) | +++ (IC50>2500 nM) |  |  |  |  |  | 
14 | COc1cccc([C@H](C)Nc2nc(CNCCN)nc3c(C(C)C)cnn23)c1 [(XXIX-2), (S)-N1-((8-isopropyl-4-((1-(3-methoxyphenyl)ethyl)amino)pyrazolo[1,5-a][1,3,5]triazin-2-yl)methyl)ethane-1.2-diamine] | > 100 | +++ (IC50>2500 nM) | +++ (IC50>2500 nM) |  |  |  |  |  | 

Now from value to compound:

Row | IC50 (CDK7/CycH/Mat1; [1]) [nM] | CDK2 IC50 range class (CDK2/CycA) | CDK9: Selectivity of CDK7 inhibition over CDK9 inhibition [fold] (CDK9/Cyclin T1) | IC50 (CDK7/CycH/Mat1; Table 7, lower part, read-out: IC50 [nM] CDK7) [nM] | IC50 (CDK7/CycH/Mat1; Table 7, upper part, read-out: IC50 [nM] CDK7) [nM] | Selectivity CDK7 over CDK2 [fold] (CDK2/CycA; Table 7, lower part) | IC50 (CDK2/CycA; Table 7, upper part) [nM] | Selectivity CDK7 over CDK9 [fold] (CDK9/Cyclin T1; Table 7, lower part) | IC50 (CDK9/Cyclin T1; Table 7, upper part) [nM] | SMILES
15 | > 100 | +++ (IC50>2500 nM) | +++ (IC50>2500 nM) |  |  |  |  |  |  | COc1cccc([C@H](C)Nc2nc(NCCCN3CCOCC3)nc3c(C(C)C)cnn23)c1 [(VIII-j), (S)-8-isopropyl-N4-(1-(3-methoxyphenyl)ethyl)-N2-(3-morpholinopropyl)pyrazolo[1,5-a][1,3,5]triazine-2,4-diamine]
16 | > 100 | +++ (IC50>2500 nM) | +++ (IC50>2500 nM) |  |  |  |  |  |  | COc1cccc([C@H](C)Nc2nc(NCCN3CCCC3)nc3c(C(C)C)cnn23)c1 [(VIII-l), (S)-8-isopropyl-N4-(1-(3-methoxyphenyl)ethyl)-N2-(2-(pyrrolidin-1-yl)ethyl)pyrazolo[1,5-a][1,3,5]triazine-2,4-diamine]
17 | > 100 | +++ (IC50>2500 nM) | +++ (IC50>2500 nM) |  |  |  |  |  |  | COc1cccc([C@H](C)Nc2nc(NCCN3CCOCC3)nc3c(C(C)C)cnn23)c1 [(VIII-m), (S)-8-isopropyl-N4-(1-(3-methoxyphenyl)ethyl)-N2-(2-morpholinoethyl)pyrazolo[1,5-a][1,3,5]triazine-2,4-diamine]
18 | 30 to 100 | +++ (IC50>2500 nM) | +++ (IC50>2500 nM) |  |  |  |  |  |  | COc1cccc([C@H](C)Nc2nc(NCC3CCNC3)nc3c(C(C)C)cnn23)c1 (stereo partly drawn) [(VIII-w), 8-isopropyl-N4-((S)-1-(3-methoxyphenyl)ethyl)-N2-(pyrrolidin-3-ylmethyl)pyrazolo[1,5-a][1,3,5]triazine-2,4-diamine]
19 | > 100 | +++ (IC50>2500 nM) | +++ (IC50>2500 nM) |  |  |  |  |  |  | COc1cccc([C@H](C)Nc2nc(NC(CN)c3ccccc3)nc3c(C(C)C)cnn23)c1 (stereo partly drawn) [(VIII-z), N2-(2-amino-1-phenylethyl)-8-isopropyl-N4-((S)-1-(3-methoxyphenyl)ethyl)pyrazolo[1,5-a][1,3,5]triazine-2,4-diamine]
20 | < 10 | +++ (IC50>2500 nM) | +++ (IC50>2500 nM) | < 10 | < 10 | 1612 | > 2500 | 1475 | > 2500 | COc1ccccc1[C@H](C)Nc1nc([S+]([O-])C2CCNCC2)nc2c(C(C)C)cnn12 (stereo partly drawn) [(X-c), 8-isopropyl-N-((S)-1-(2-methoxyphenyl)ethyl)-2-(piperidin-4-ylsulfinyl)pyrazolo[1,5-a][1,3,5]triazin-4-amine]
21 | 10 to 30 | +++ (IC50>2500 nM) | +++ (IC50>2500 nM) |  |  |  |  |  |  | COc1cccc([C@H](C)Nc2nc(S(=O)(=O)C3CCNCC3)nc3c(C(C)C)cnn23)c1 [(X-f), (S)-8-isopropyl-N-(1-(3-methoxyphenyl)ethyl)-2-(piperidin-4-ylsulfonyl)pyrazolo[1,5-a][1,3,5]triazin-4-amine]
22 | > 100 | +++ (IC50>2500 nM) | +++ (IC50>2500 nM) |  |  |  |  |  |  | COc1cccc([C@H](C)Nc2nc(CN3CCNCC3)nc3c(C(C)C)cnn23)c1 [(XXIX-1), (S)-8-isopropyl-N-(1-(3-methoxyphenyl)ethyl)-2-(piperazin-1-ylmethyl)pyrazolo[1,5-a][1,3,5]triazin-4-amine]
